In patent US9522908B2, “Ezrin inhibitors and methods of making and using” (Georgetown University, priority 2010, dated 2016):

Columns and labels:
[1] = system: K7M2, K12 and HUVEC cells; assay: Toxicity to cells at invasion assay concentrations; type: cell-based; details: 1 μM and 10 μM; data not shown
Method: Chemotaxis experiments were performed in 96 well Boyden chamber as described previously (Chen, K., et al., Pediatr. Blood Cancer, 51, 349-355 (2008)). To measure effect of compounds on cellular toxicity, WST viability assay (Roche, Indianapolis, Ind.) was performed in parallel to chemotaxis experiments.

[2] = system: K7M2 cells; assay: Invasion of HUVEC monolayer by K7M2 cells (ECIS, xCELLigence); type: cell-based; details: 1 μM and 10 μM, vs control 1% DMSO
Method: (§1) FIG. 3 illustrates NSC305787 and NSC668394 inhibit ezrin mediated invasion of OS cells. (A) Endogenous ezrin protein levels in K12 and K7M2 cells are shown. Equal loading is determined by blotting with an actin antibody. […] Error bars represent standard deviation from duplicate data points. The experiments were performed in duplicates. Cell index is a measurement parameter with no units. In this assay a decrease in cell index represents invasion of HUVEC layer by OS cells. It is measured according to the following formula: Cell index=((Rt−R0)/F where, Rt is resistance at time point t, R0 is background resistance (measured with media alone, no cells), and F is frequency at which measurement is taken (10 kHz).
(§2) The anti-invasive potential of NSC305787 and NSC668394 were evaluated by using electric cell impedance sensing (ECIS) on a Roche xCELLigence system (Roche, Indianapolis, Ind.). Briefly, HUVEC cells (25,000/well) were seeded in a 96-well plate in EGM-2 media (Lonza, Basel, CH). Following formation of a confluent HUVEC monolayer (app 32 hrs), EGM-2 media was aspirated and a layer of OS cells (10,000 cells/well) was added in DMEM media containing the compounds. This time point was accepted as 0 hr of treatment and invasion was monitored during the following 6 hrs by measuring changes in resistance at the cell-electrode interphase.

[3] = system: K12 cells; assay: Invasion of HUVEC monolayer by K12 cells (ECIS, xCELLigence); type: cell-based
Method: as §1, §2

[4] = biological target: T1, ezrin / poly-A-binding protein 1 (PABP1) interaction (Mus musculus, UniProt P26040); assay: Ezrin-PABP1 interaction by immunoprecipitation and western blot; type: cell-based; details: cells treated 60 min prior to immunoprecipitation
T1 construct: endogenous in cells; host or cells: K7M2 osteosarcoma cells
Method: (A) Total cell lysates from K7M2 osteosarcoma cells were immunoprecipitated by using an anti-ezrin antibody. As a control, non-specific total IgG was used. Immunoprecipitates were run on SDS-PAGE and Western Blot was performed using anti-ezrin (lower panel) and anti-PABP1 (upper panel) antibodies. PABP1 protein was detected in immunoprecipitates of ezrin, suggetsing that these two proteins interact with each other in a protein complex. (B) Ezrin-PABP1 interaction was also evaluated in an ELISA experiment where recombinant ezrin protein was immmobilized on surface and total cell lysates from osteosarcoma cells were applied on top. Amount of PABP1 binding to ezrin on the surface was detected by a anti-PABP1 primary antibody followed by enzyme linked secondary antibody. (C) Immunoprecipitation and western experiment was prepared as described in panel A. Cells were treated with NSC305787 (compound 8) and NSC668394 (compound 16) for 60 min prior to immunoprecipitation. Both NSC305787 and NSC668394 inhibited interaction of PABP1 with ezrin

[5] = system: K7M2 metastatic OS tumor cells; assay: In vivo experimental lung metastasis model, K7M2 cells; set-up: species or system mice
Method: FIG. 6 illustrates NSC305787 and NSC668394 inhibit in vivo OS metastatic growth in lungs. (A) K7M2 metastatic OS tumor cells (1×10^6) were injected via tail vein. Vehicle (1% DMSO), NSC305787 (240 μg/kg) and NSC668394 (226 μg/kg) were injected 5 days a week intraperitoneally. Kaplan-Meier survival curves show percent survival for NSC305787 and NSC668394 treatment over time. Median survival of vehicle, NSC305787 and NSC668394 treated K7M2 cells were 28.5, 50, and 49 days after tumor cell injection. […] (B) Fluorescence pictures of whole lungs are given. […] (C) GFP expressing ezrin independent MNNG, human OS cells were injected to mice and treated with vehicle (1% DMSO), NSC305787 (240 μg/kg) and NSC668394 (226 μg/kg). Survival of each group is not different probably because MNNG is an ezrin independent cell line. Median survival of vehicle, NSC305787 and NSC668394 treated MNNG cells were 50.5, 49, and 48.5 days after tumor cell injection. (D) Fluorescent images of the lung tissues of this group are given.
GFP expressing K7M2 or MNNG tumor cells (1×10^6) were delivered by tail vein to nude mice. One day after injection, vehicle, NSC305787 (240 μg/kg/inj) and […] (226 μg/kg/inj) were injected 5 days a week intraperitoneally.

[6] = biological target: actin; assay: SPR binding to actin (negative control); details: data not shown

T1 sequence (P26040 whole entry): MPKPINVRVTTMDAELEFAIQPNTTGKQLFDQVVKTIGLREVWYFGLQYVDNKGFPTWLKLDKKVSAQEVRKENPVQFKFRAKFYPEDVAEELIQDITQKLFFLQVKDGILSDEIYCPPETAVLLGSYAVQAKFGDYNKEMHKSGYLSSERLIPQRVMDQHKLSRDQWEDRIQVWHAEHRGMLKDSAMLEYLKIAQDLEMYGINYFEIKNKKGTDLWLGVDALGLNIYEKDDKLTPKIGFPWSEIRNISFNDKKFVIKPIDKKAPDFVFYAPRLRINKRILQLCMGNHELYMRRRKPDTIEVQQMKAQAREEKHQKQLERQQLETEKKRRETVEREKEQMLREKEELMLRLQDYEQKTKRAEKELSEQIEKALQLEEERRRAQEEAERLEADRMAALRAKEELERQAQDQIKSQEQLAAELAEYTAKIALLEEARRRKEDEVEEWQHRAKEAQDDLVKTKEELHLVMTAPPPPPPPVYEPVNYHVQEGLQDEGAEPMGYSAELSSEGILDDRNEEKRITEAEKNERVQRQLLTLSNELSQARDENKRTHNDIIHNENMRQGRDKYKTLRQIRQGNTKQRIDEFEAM

`OC(c1cc(C23CC4CC(CC(C4)C2)C3)nc2c(Cl)cc(Cl)cc12)C1CCCCN1` (centres unmarked) [NSC305787] was tested, and the “toxicity to K7M2, K12 and HUVEC cells” value [1] was “not toxic”, the “invasion of K7M2 cells through HUVEC monolayer” value [2] was “inhibited invasion” and the “invasion of K12 cells” value ([3]; 1 μM) was “did not have any effect”. The “invasion of K12 cells” value ([3]; 10 μM) was “did not have any effect”, the “interaction of PABP1 with ezrin” value [4] was “inhibited” and the “number of GFP expressing metastatic foci in lung tissues” value ([5]; K7M2 cells) was “significant decrease”. The “median survival after tumor cell injection” value ([5]; K7M2 cells by tail vein, i.p. 5 days a week, vehicle 28.5 days) was 50 days and the Kd [6] was 91.4 µM.
